Measurements published in the supplement of paper PMC10307832.

Tests used:
Experiment in all cases: relative viability (nuclei count vs DMSO), 5 days (fraction); higher = more cells survive
XMD13-2 + Tozasertib = compound: C1CC1C(=O)NC2=NNC3=C2C=CC(=C3)C4=CC(=CC=C4)C(=O)NC5CC5 [XMD13-2] + Cc1cc(Nc2cc(N3CCN(C)CC3)nc(Sc3ccc(NC(=O)C4CC4)cc3)n2)n[nH]1 [Tozasertib] (partner 0.1 µM)
Procedure, shortened: (§1)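 Lung cancer cell lines were pin-tool dosed in 1536-well plates on the day after seeding, with either a lone drug or a fixed anchor-drug dose plus five library-drug doses (not always all listed) in √10 steps. Nuclei were counted on 4× images after 5 days. Relative viability is the ratio of treated-well to vehicle-well nuclei counts, with each value a median of duplicate plates.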

ALW-II-49-7 + Trametinib = compound: Cc1ccc(C(=O)Nc2cccc(C(F)(F)F)c2)cc1Nc1cncc(C(N)=O)c1 [ALW-II-49-7] + CC(=O)Nc1cccc(-n2c(=O)n(C3CC3)c(=O)c3c(Nc4ccc(I)cc4F)n(C)c(=O)c(C)c32)c1 [Trametinib] (partner 0.02 µM)
Procedure, shortened: as §1

ALW-II-49-7 + Dasatinib = compound: Cc1ccc(C(=O)Nc2cccc(C(F)(F)F)c2)cc1Nc1cncc(C(N)=O)c1 [ALW-II-49-7] + Cc1nc(Nc2ncc(C(=O)Nc3c(C)cccc3Cl)s2)cc(N2CCN(CCO)CC2)n1 [Dasatinib] (partner 0.075 µM)
Procedure, shortened: as §1

ALW-II-49-7 + Phenformin = compound: Cc1ccc(C(=O)Nc2cccc(C(F)(F)F)c2)cc1Nc1cncc(C(N)=O)c1 [ALW-II-49-7] + N=C(N)NC(=N)NCCc1ccccc1 [Phenformin] (partner 250 µM)
Procedure, shortened: as §1

| Cell Line | relative viability (XMD13-2 + Tozasertib; first compound 0.05 µM) | relative viability (XMD13-2 + Tozasertib; first compound 0.1581 µM) | relative viability (XMD13-2 + Tozasertib; first compound 0.5 µM) | relative viability (XMD13-2 + Tozasertib; first compound 1.581 µM) | relative viability (XMD13-2 + Tozasertib; first compound 5 µM) | relative viability (ALW-II-49-7 + Trametinib; first compound 0.08 µM) | relative viability (ALW-II-49-7 + Trametinib; first compound 0.253 µM) | relative viability (ALW-II-49-7 + Trametinib; first compound 0.8 µM) | relative viability (ALW-II-49-7 + Trametinib; first compound 2.53 µM) | relative viability (ALW-II-49-7 + Trametinib; first compound 8 µM) | relative viability (ALW-II-49-7 + Dasatinib; first compound 0.08 µM) | relative viability (ALW-II-49-7 + Dasatinib; first compound 0.253 µM) | relative viability (ALW-II-49-7 + Dasatinib; first compound 0.8 µM) | relative viability (ALW-II-49-7 + Dasatinib; first compound 2.53 µM) | relative viability (ALW-II-49-7 + Dasatinib; first compound 8 µM) | relative viability (ALW-II-49-7 + Phenformin; first compound 0.08 µM) | relative viability (ALW-II-49-7 + Phenformin; first compound 0.253 µM) | relative viability (ALW-II-49-7 + Phenformin; first compound 0.8 µM) | relative viability (ALW-II-49-7 + Phenformin; first compound 2.53 µM) | relative viability (ALW-II-49-7 + Phenformin; first compound 8 µM) |
| --- | --- | --- | --- | --- | --- | --- | --- | --- | --- | --- | --- | --- | --- | --- | --- | --- | --- | --- | --- | --- |
| NCI-H2342 | 0.547 | 0.421 | 0.525 | 0.603 | 0.575 | 0.709 | 0.817 | 0.828 | 0.69 | 0.786 | 0.303 | 0.299 | 0.327 | 0.3 | 0.314 | 0.572 | 0.602 | 0.635 | 0.497 | 0.564 |
| HCC-366 | 0.0882 | 0.0936 | 0.127 | 0.115 | 0.116 | 0.33 | 0.361 | 0.404 | 0.275 | 0.288 | 0.694 | 0.75 | 0.591 | 0.528 | 0.7 | 0.649 | 0.623 | 0.541 | 0.622 | 0.611 |
| NCI-H2405 | 0.788 | 0.645 | 0.801 | 0.707 | 0.712 | 0.662 | 0.699 | 0.637 | 0.47 | 0.467 | 0.207 | 0.216 | 0.219 | 0.208 | 0.173 | 0.389 | 0.411 | 0.343 | 0.351 | 0.358 |
| 201T | 1.02 | 0.921 | 0.867 | 0.872 | 0.828 | 0.718 | 0.791 | 0.691 | 0.715 | 0.777 | 0.616 | 0.664 | 0.545 | 0.594 | 0.479 | 0.43 | 0.456 | 0.456 | 0.477 | 0.414 |
| CAL-12T | 0.344 | 0.41 | 0.307 | 0.31 | 0.368 | 0.294 | 0.336 | 0.346 | 0.307 | 0.288 | 0.433 | 0.223 | 0.277 | 0.372 | 0.266 | 0.543 | 0.498 | 0.603 | 0.627 | 0.538 |
| HCC-44 | 1.06 | 1.09 | 1.09 | 0.903 | 0.842 | 1.08 | 0.994 | 1.03 | 1.09 | 1.26 |  |  |  |  |  | 0.261 | 0.203 | 0.231 | 0.277 | 0.211 |
| NCI-H358 | 0.126 | 0.121 | 0.102 | 0.114 | 0.0991 | 0.117 | 0.123 | 0.142 | 0.14 | 0.119 | 0.151 | 0.159 | 0.173 | 0.192 | 0.286 | 0.324 | 0.297 | 0.356 | 0.407 | 0.312 |
| SW 900 | 0.62 | 0.573 | 0.506 | 0.473 | 0.533 | 0.864 | 0.869 |  | 0.727 | 0.874 | 0.607 | 0.565 | 0.559 | 0.565 | 0.478 | 0.397 | 0.542 | 0.549 | 0.703 | 0.534 |
| NCI-H2087 | 0.264 | 0.239 | 0.268 | 0.223 | 0.207 | 0.214 | 0.211 | 0.228 | 0.189 | 0.188 | 0.924 | 0.784 | 0.825 | 0.978 | 0.753 | 0.526 | 0.459 | 0.488 | 0.467 | 0.445 |
